Where two headings read alike, the source gives them in different places.
Molecular target: Ba/F3 V617F cells (Homo sapiens, UniProt O60674, V617F, cells depend on it)
Assay: Proliferation assay (Cell Titer-Glo, 72 h) utilizing Ba/F3 V617F cells
Format: cell-based, mouse
In short: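 Readout is CellTiter-Glo luminescence after 72 h at 37 °C, giving IC50. Cells: Ba/F3 V617F, 1×10^5 cells/mL in RPMI with 10% FBS, treated in duplicate with 3-fold dilution series made from 5 mM DMSO stock, 1:250 in 5% FBS medium, added at 2×.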

[1] = Ba/F3 V617F cells, proliferation, level of activity given as class symbol, read-out: IC50 (the source's name)
[2] = Ba/F3 V617F cells, proliferation, level of activity to inhibit JAK2, read-out: IC50 (the source's name)
[3] = inhibition of JAK2 activity, proliferation of Ba/F3 V617F cells, read-out: IC50 (the source's name)

Ba/F3 V617F cells, sequence (O60674 whole entry V617F): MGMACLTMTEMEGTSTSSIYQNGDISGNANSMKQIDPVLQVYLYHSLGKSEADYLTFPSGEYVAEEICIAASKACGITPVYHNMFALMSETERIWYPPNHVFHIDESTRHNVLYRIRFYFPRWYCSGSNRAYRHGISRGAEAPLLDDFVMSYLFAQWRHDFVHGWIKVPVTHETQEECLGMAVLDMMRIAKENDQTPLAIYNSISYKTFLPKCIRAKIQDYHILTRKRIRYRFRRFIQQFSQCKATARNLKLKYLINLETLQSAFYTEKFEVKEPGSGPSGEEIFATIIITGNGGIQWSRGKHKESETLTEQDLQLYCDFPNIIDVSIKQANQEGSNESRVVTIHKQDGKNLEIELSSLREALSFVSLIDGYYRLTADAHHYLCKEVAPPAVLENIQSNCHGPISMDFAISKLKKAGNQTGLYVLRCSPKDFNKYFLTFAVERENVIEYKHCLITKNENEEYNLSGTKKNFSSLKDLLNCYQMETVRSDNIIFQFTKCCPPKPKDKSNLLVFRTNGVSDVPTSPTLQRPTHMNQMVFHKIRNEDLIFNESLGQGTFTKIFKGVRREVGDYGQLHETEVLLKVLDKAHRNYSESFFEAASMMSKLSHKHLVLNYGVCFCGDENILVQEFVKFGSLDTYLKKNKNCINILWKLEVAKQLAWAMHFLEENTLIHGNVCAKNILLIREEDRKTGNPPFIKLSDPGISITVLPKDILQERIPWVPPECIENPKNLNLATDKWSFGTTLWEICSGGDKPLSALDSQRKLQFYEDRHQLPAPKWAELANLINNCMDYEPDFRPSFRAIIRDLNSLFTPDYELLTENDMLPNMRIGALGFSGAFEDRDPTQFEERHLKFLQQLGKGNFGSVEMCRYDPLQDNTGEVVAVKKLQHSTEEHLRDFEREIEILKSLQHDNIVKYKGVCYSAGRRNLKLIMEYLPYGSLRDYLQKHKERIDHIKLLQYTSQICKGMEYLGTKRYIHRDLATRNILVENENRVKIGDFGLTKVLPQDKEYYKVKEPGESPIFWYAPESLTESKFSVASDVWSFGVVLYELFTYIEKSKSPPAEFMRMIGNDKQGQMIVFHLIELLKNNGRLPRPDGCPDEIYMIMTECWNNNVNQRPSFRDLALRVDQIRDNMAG

Row | GI50 [2] | SMILES | also measured
1 |  | Cc1cc(Nc2nccc(-c3ccc(N4CCOCC4)nc3)n2)ccc1N1C2CCC1CC(N1CCOCC1)C2 (stereo not shown) [compound 284, 4-(6-(morpholin-4-yl)pyridin-3-yl)-N-(3-methyl-4-(3-(morpholin-4-yl)-8-azabicyclo[3.2.1]octan-8-yl)phenyl)pyrimidin-2-amine] | GI50 [1]: < 1000 nM
2 | < 1000 nM | CN(C)c1ccc(-c2ccnc(Nc3ccc(N4C[C@@H]5C[C@H]4CN5C)c(C(F)(F)F)c3)n2)cn1 [compound 96, 4-(6-(dimethylamino)pyridin-3-yl)-N-(3-trifluoromethyl-4-((1S,4S)-5-methyl-2,5-diazabicyclo[2.2.1]heptan-2-yl)phenyl)pyrimidin-2-amine] | 
3 | < 1000 nM | CN1C[C@@H]2C[C@H]1CN2c1ccc(Nc2nccc(-c3cnc4[nH]ccc4c3)n2)cc1F [compound 23, 4-(1H-pyrrolo[2,3-b]pyridin-5-yl)-N-(3-fluoro-4-((1S,4S)-5-methyl-2,5-diazabicyclo[2.2.1]heptan-2-yl)phenyl)pyrimidin-2-amine] | 
4 |  | Cc1cc(Nc2nccc(-c3cnc4c(c3)OC(C)(C)C(=O)N4)n2)ccc1N1C[C@@H]2C[C@H]1CN2C1CC1 [compound 247, 4-(2,2-dimethyl-3-oxo-3,4-dihydro-2H-pyrido[3,2-b][1,4]oxazin-7-yl)-N-(3-methyl-4-((1S,4S)-5-cyclopropyl-2,5-diazabicyclo[2.2.1]heptan-2-yl)phenyl)pyrimidin-2-amine] | GI50 [1]: < 1000 nM
5 | < 1000 nM | Cc1cc(Nc2nccc(-c3cnc4c(c3)OCCN4)n2)ccc1N1CC2(C)CN(C)CC(C)(C1)C2 [compound 88, 4-(3,4-dihydro-2H-pyrido[3,2-b][1,4]oxazin-7-yl)-N-(3-methyl-4-(1,5,7-trimethyl-3,7-diazabicyclo[3.3.1]nonan-3-yl)phenyl)pyrimidin-2-amine] | 
6 | 1000 to 10000 nM | Cc1cc(Nc2nccc(-c3cnn(-c4cccc(Cl)c4)c3)n2)ccc1N1C[C@@H]2C[C@H]1CN2C [compound 106, 4-(1-(3-chlorophenyl)-1H-pyrazol-4-yl)-N-(3-methyl-4-((1S,4S)-5-methyl-2,5-diazabicyclo[2.2.1]heptan-2-yl)phenyl)pyrimidin-2-amine] | 
7 | 1000 to 10000 nM | Cc1cc(Nc2nccc(-c3cnc(N4CCOCC4)cn3)n2)ccc1N1C[C@@H]2C[C@H]1CN2C [compound 178, 4-(5-(morpholin-4-yl)pyrazin-2-yl)-N-(3-methyl-4-((1S,4S)-5-methyl-2,5-diazabicyclo[2.2.1]heptan-2-yl)phenyl)pyrimidin-2-amine] | 
8 | < 1000 nM | CC(=O)N1C[C@@H]2C[C@H]1CN2c1ccc(Nc2nccc(-c3ccc(N4CCOCC4)nc3)n2)cc1C#N [compound 116, 4-(6-(morpholin-4-yl)pyridin-3-yl)-N-(3-cyano-4-((1S,4S)-5-acetyl-2,5-diazabicyclo[2.2.1]heptan-2-yl)phenyl)pyrimidin-2-amine] | 
9 |  | Cc1cc(Nc2nccc(-c3cnc4c(c3)CN3CCCC3C(=O)N4)n2)ccc1N1C[C@@H]2C[C@H]1CN2C (stereo partly drawn) [compound 270, 4-(7,8,9,9a-tetrahydro-5H-pyrido[2,3-e]pyrrolo[1,2-a][1,4]diazepin-10(11H)-on-3-yl)-N-(3-methyl-4-((1S,4S)-5-methyl-2,5-diazabicyclo[2.2.1]heptan-2-yl)phenyl)pyrimidin-2-amine] | GI50 [1]: < 1000 nM
10 |  | Cc1cc(Nc2nccc(-c3ccc(N4CCOCC4)nc3)n2)cnc1N1C[C@@H]2C[C@H]1CN2C [compound 66, 4-(6-(morpholin-4-yl)pyridin-3-yl)-N-(5-methyl-6-((1S,4S)-5-methyl-2,5-diazabicyclo[2.2.1]heptan-2-yl)pyridin-3-yl)pyrimidin-2-amine] | GI50 [3]: 1000 to 10000 nM
11 | < 1000 nM | CCC(=O)N1C[C@@H]2C[C@H]1CN2c1ccc(Nc2nccc(-c3ccc(N)nc3)n2)cc1C [compound 148, 4-(6-aminopyridin-3-yl)-N-(3-methyl-4-((1S,4S)-5-ethylcarbonyl-2,5-diazabicyclo[2.2.1]heptan-2-yl)phenyl)pyrimidin-2-amine] | 
12 | < 1000 nM | CCOCCCNc1ccc(-c2ccnc(Nc3ccc(N4C[C@@H]5C[C@H]4CN5C)c(C)c3)n2)cn1 [compound 186, 4-(6-(3-ethoxypropyl)aminopyridin-3-yl)-N-(3-methyl-4-((1S,4S)-5-methyl-2,5-diazabicyclo[2.2.1]heptan-2-yl)phenyl)pyrimidin-2-amine] | 
13 | < 1000 nM | CN1C[C@@H]2C[C@H]1CN2c1ccc(Nc2nccc(-c3ccc(NC4CCCCC4)nc3)n2)cc1F [compound 79, 4-(6-(cyclohexylamino)pyridin-3-yl)-N-(3-fluoro-4-((1S,4S)-5-methyl-2,5-diazabicyclo[2.2.1]heptan-2-yl)phenyl)pyrimidin-2-amine] | 
14 |  | Cc1cc(Nc2nccc(-c3cnc4c(c3)OC(C)(C)C(=O)N4)n2)cnc1N1C[C@@H]2C[C@H]1CN2C [compound 138, 4-(2,2-dimethyl-3-oxo-3,4-dihydro-2H-pyrido[3,2-b][1,4]oxazin-7-yl)-N-(5-methyl-6-((1S,4S)-5-methyl-2,5-diazabicyclo[2.2.1]heptan-2-yl)pyridin-3-yl)pyrimidin-2-amine] | GI50 [3]: < 1000 nM
15 | < 1000 nM | Cc1cc(Nc2nccc(-c3ccc(NC(=O)C(C)(C)C)cc3)n2)ccc1N1CC2CCC(C1)N2C [compound 168, 4-(4-(t-butylcarbonylamino)phenyl)-N-(3-methyl-4-(8-methyl-3,8-diazabicyclo[3.2.1]octan-3-yl)phenyl)pyrimidin-2-amine] | 
16 | < 1000 nM | Cc1cc(Nc2nccc(-c3ccc(C(C)(C)C)cc3)n2)ccc1N1C[C@@H]2C[C@H]1CN2C [compound 46, 4-(4-(1,1-dimethylethyl)phenyl)-N-(3-methyl-4-((1S,4S)-5-methyl-2,5-diazabicyclo[2.2.1]heptan-2-yl)phenyl)pyrimidin-2-amine] | 
17 |  | CN1C[C@@H]2C[C@H]1CN2c1ccc(Nc2nccc(-c3ccc4c(c3)SCC(=O)N4)n2)cc1C#N [compound 273, 4-(3-oxo-3,4-dihydro-2H-benzo[b][1,4]thiazin-7-yl)-N-(3-cyano-4-((1S,4S)-5-methyl-2,5-diazabicyclo[2.2.1]heptan-2-yl)phenyl)pyrimidin-2-amine] | GI50 [1]: < 1000 nM
18 |  | Cc1cc(Nc2nccc(-c3ccc(N(C)C)cc3)n2)cnc1N1C[C@@H]2C[C@H]1CN2C [compound 62] | GI50 [3]: 1000 to 10000 nM
19 | 1000 to 10000 nM | Cc1cc(Nc2nccc(-c3ccc(N4C[C@@H]5C[C@H]4CN5C)nc3)n2)ccc1N1CCN(C)CC1 [compound 12, 4-(6-((1S,4S)-5-methyl-2,5-diazabicyclo-[2.2.1]-heptan-2-yl)pyridin-3-yl)-N-(3-methyl-4-(4-methyl-piperazin-1-yl)phenyl)-pyrimidin-2-amine] | 
20 |  | Cc1cc(Nc2nccc(-c3ccc(NS(C)(=O)=O)nc3)n2)cnc1N1C[C@@H]2C[C@H]1CN2C [compound 154, 4-(6-(methylsulfonylamino)pyridin-3-yl)-N-(5-methyl-6-((1S,4S)-5-methyl-2,5-diazabicyclo[2.2.1]heptan-2-yl)pyridin-3-yl)pyrimidin-2-amine] | GI50 [3]: > 20000 nM
21 |  | Cc1cc(Nc2nccc(-c3ccc(NCCCN(C)C)nc3)n2)ccc1N1C[C@@H]2C[C@H]1CN2C [compound 198, 4-(6-(3-dimethylamino)propylaminopyridin-3-yl)-N-(3-methyl-4-((1S,4S)-5-methyl-2,5-diazabicyclo[2.2.1]heptan-2-yl)phenyl)pyrimidin-2-amine] | GI50 [1]: 1000 to 10000 nM
22 | < 1000 nM | Cc1cc(Nc2nccc(-c3cncc(C(=O)N4CCOCC4)c3)n2)ccc1N1C[C@@H]2C[C@H]1CN2C [compound 52, 4-(5-((morpholin-4-yl)carbonyl)pyridin-3-yl)-N-(3-methyl-4-((1S,4S)-5-methyl-2,5-diazabicyclo[2.2.1]heptan-2-yl)phenyl)pyrimidin-2-amine] | 
23 |  | CCCNc1ccc(-c2ccnc(Nc3ccc(N4C[C@@H]5C[C@H]4CN5C)c(C)c3)n2)cn1 [compound 188, 4-(6-(propylamino)pyridin-3-yl)-N-(3-methyl-4-((1S,4S)-5-methyl-2,5-diazabicyclo[2.2.1]heptan-2-yl)phenyl)pyrimidin-2-amine] | GI50 [1]: < 1000 nM
24 | 1000 to 10000 nM | Cc1cc(Nc2ncc(C(F)(F)F)c(-c3ccc(N(C)C)nc3)n2)ccc1N1C[C@@H]2C[C@H]1CN2C [compound 3, 4-(6-(N,N-dimethylamino)pyridin-3-yl)-5-trifluoromethyl-N-(3-methyl-4-((1S,4S)-5-methyl-2,5-diazabicyclo[2.2.1]heptan-2-yl)phenyl)pyrimidin-2-amine] | 
25 | < 1000 nM | Cc1cc(Nc2nccc(-c3cc4cc(C#N)ccc4[nH]3)n2)ccc1N1C[C@@H]2C[C@H]1CN2C [compound 108, 4-(5-cyano-1H-indol-2-yl)-N-(3-methyl-4-((1S,4S)-5-methyl-2,5-diazabicyclo[2.2.1]heptan-2-yl)phenyl)pyrimidin-2-amine] | 
26 |  | Cc1cc(Nc2nccc(-c3ccc(OC4CCOCC4)nc3)n2)ccc1N1C2CCC1CC(N1CCOCC1)C2 (stereo not shown) [compound 285, 4-(6-(tetrahydropyran-4-yloxy)pyridin-3-yl)-N-(3-methyl-4-(3-(morpholin-4-yl)-8-azabicyclo[3.2.1]octan-8-yl)phenyl)pyrimidin-2-amine] | GI50 [1]: < 1000 nM
27 |  | CC(C)N1C[C@@H]2C[C@H]1CN2c1ccc(Nc2nccc(-c3ccc(N4CCOCC4)nc3)n2)cc1Cl [compound 263, 4-(6-(morpholin-4-yl)pyridin-3-yl)-N-(3-chloro-4-((1S,4S)-5-(1-methylethyl)-2,5-diazabicyclo[2.2.1]heptan-2-yl)phenyl)pyrimidin-2-amine] | GI50 [1]: < 1000 nM
28 | < 1000 nM | Cc1cc(Nc2nccc(-c3ccc4c(c3)CC(=O)N4)n2)ccc1N1C[C@@H]2C[C@H]1CN2C [compound 113, 4-(2-oxoindolin-5-yl)-N-(3-methyl-4((1S,4S)-5-methyl-2,5-diazabicyclo[2.2.1]heptan-2-yl)phenyl)pyrimidin-2-amine] | 

Source: patent US9624229B2, “Pyrimidine-2-amine compounds and their use as inhibitors of JAK kinases” (Rigel Pharmaceuticals, Inc., priority 2008, dated 2017)
